The record followed here is patent US11214803B2, “Modulators of YAP1 expression” (Ionis Pharmaceuticals, Inc., priority 2019, dated 2022).

Strand notation (5' to 3'): a small letter for the sugar, then the base; units joined by * are phosphorothioate-linked, units joined directly phosphodiester-linked; [ ] holds rarer units or linkages, { } end groups; capitals alone tell only the bases. k = constrained ethyl (cEt); [5mC] = 5-methylcytosine; d = 2'-deoxy (DNA)

The series concerns Yap1 mRNA. Put plainly: Antisense inhibition of human Yap1 in A-431 cells by cEt gapmers, single dose (Example 4, RTS4814). The class given is cell-based. The gist of the method: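 Values are % UTC: Yap1 mRNA by quantitative RT-PCR, normalized to RIBOGREEN total RNA. Cells were exposed ~48 h to 2,000 nM oligonucleotide without transfection. Oligonucleotides were 16-nucleoside gapmers with three cEt nucleosides per wing, ten-deoxy gap, P=S linkages throughout.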

[1] abbreviates: Table 16, A-431 cells, 5,000 cells per well, free uptake, 2,000 nM, approximately 48 hours, RTS4814, normalized to RIBOGREEN, Yap1 mRNA relative to untreated control cells.
Where [2] appears, read: Yap1 mRNA remaining as percent of untreated control, 3-10-3 cEt gapmers, A-431 cells, Table 36.
[3] abbreviates: Yap1 mRNA remaining as percent of untreated control, 3-10-3 cEt gapmers, A-431 cells, Table 37.
The mark [4] stands for this setting: Table 14, A-431 cells, 5,000 cells per well, free uptake, 2,000 nM, approximately 48 hours, RTS4814, normalized to RIBOGREEN, Yap1 mRNA relative to untreated control, * = targets amplicon region of primer probe set.
Setting [5] is: Table 17, A-431 cells, 5,000 cells per well, free uptake, 2,000 nM, approximately 48 hours, RTS4814, normalized to RIBOGREEN, Yap1 mRNA relative to untreated control cells.
The mark [6] stands for this setting: Table 15, A-431 cells, 5,000 cells per well, free uptake, 2,000 nM, approximately 48 hours, RTS4814, normalized to RIBOGREEN, Yap1 mRNA relative to untreated control, * = targets amplicon region of primer probe set.

Regarding “1075554 (kT*kT*kG*d[5mC]*dA*dA*dT*dA*dG*dT*d[5mC]*dA*d[5mC]*k[5mC]*k[5mC]*kA; antisense) [Compound 1075554]”, under setting [1], the “YAP1 (% UTC)” value worked out at 56 % UTC.
“1075734 (kA*kG*kG*d[5mC]*dA*dA*dT*dA*dA*d[5mC]*d[5mC]*dT*d[5mC]*kG*kA*kG; antisense) [compound 1075734]”: the “YAP1 (% UTC)” value under setting [2] was found to be 26 % UTC.
In the case of “1075703 (kG*kG*kA*dG*dA*dA*dA*dG*d[5mC]*d[5mC]*dA*dT*d[5mC]*kA*kA*kG; antisense) [compound 1075703]”, under setting [3], the “YAP1 (% UTC)” value was 10 % UTC.
On to “1075702 (kG*kA*kG*dG*dA*dA*dG*dG*dG*d[5mC]*dA*d[5mC]*d[5mC]*kT*kT*kT; antisense) [compound 1075702]”, for which the “YAP1 (% UTC)” value under setting [2] stood at 81 % UTC.
For the substance “1075426 (antisense kG*kT*kA*dT*dT*dA*dT*dT*dA*dA*dT*d[5mC]*d[5mC]*kT*kG*kT) [Compound 1075426]”, the “YAP1 (% UTC)” value under setting [1] was 49 % UTC.
Take “1074806 (kT*kT*kG*dT*dA*dG*d[5mC]*dA*dA*dA*dG*dT*d[5mC]*kA*k[5mC]*kT; antisense) [compound 1074806]”: the “YAP1 (% UTC)” value under setting [2] worked out at 8 % UTC.
Consider “1075906 (k[5mC]*k[5mC]*kT*d[5mC]*dA*dA*dT*dA*d[5mC]*dA*dG*dA*dT*kG*kA*kA; antisense) [Compound 1075906]”, for which, under setting [1], the “YAP1 (% UTC)” value was found to be 39 % UTC.
For the substance “1075936 (k[5mC]*kT*kT*dA*dT*dA*dT*dT*d[5mC]*dT*d[5mC]*dT*d[5mC]*k[5mC]*kG*kA; antisense) [Compound 1075936]”, the “YAP1 (% UTC)” value under setting [4] worked out at 49 % UTC.
Take “1075319 (antisense kT*kA*kT*dA*dA*d[5mC]*dA*dA*dT*d[5mC]*dA*dT*d[5mC]*k[5mC]*kT*kA) [compound 1075319]”: under setting [3], the “YAP1 (% UTC)” value was 59 % UTC.
With “1075360 (kA*kG*kG*d[5mC]*dA*dA*d[5mC]*dA*dA*d[5mC]*dA*dT*d[5mC]*kT*kA*kA; antisense) [Compound 1075360]”, the “YAP1 (% UTC)” value under setting [4] is 50 % UTC.
Consider “1075299 (kG*kA*kT*dA*dA*d[5mC]*d[5mC]*dA*dA*dT*dG*d[5mC]*dA*k[5mC]*k[5mC]*kA; antisense) [Compound 1075299]”, for which the “YAP1 (% UTC)” value under setting [5] is 21 % UTC.
Consider “1076246 (kT*k[5mC]*k[5mC]*dT*dA*dA*dA*dA*dA*dA*d[5mC]*dT*dA*kG*kT*kG; antisense) [compound 1076246]”, for which the “YAP1 (% UTC)” value under setting [2] was determined as 75 % UTC.
“1074787 (k[5mC]*kA*kA*d[5mC]*d[5mC]*dA*dT*dA*dA*dG*dT*dA*dG*kA*kT*k[5mC]; antisense) [Compound 1074787]”: the “YAP1 (% UTC)” value under setting [5] turned out to be 13 % UTC.
Same read-out and setting: the figure for “1074275 (antisense k[5mC]*kA*kA*dG*dA*dG*dG*dT*dG*dG*dT*d[5mC]*dT*kT*kG*kT) [Compound 1074275]” is 73 % UTC.
In the case of “1076342 (antisense k[5mC]*kA*kT*dT*dA*dA*d[5mC]*dT*dA*d[5mC]*dA*dA*d[5mC]*kT*kG*kT) [compound 1076342]”, the “YAP1 (% UTC)” value under setting [2] was 33 % UTC.
In the case of “1075427 (antisense kT*kA*kT*dA*dA*dG*dG*d[5mC]*dA*dT*d[5mC]*dT*dT*kG*kG*kA) [Compound 1075427]”, the “YAP1 (% UTC)” value under setting [5] stood at 60 % UTC.
Consider “1076118 (k[5mC]*kG*kT*dA*dA*dA*dT*dT*dG*dA*dG*dG*d[5mC]*k[5mC]*k[5mC]*kA; antisense) [compound 1076118]”, for which the “YAP1 (% UTC)” value under setting [2] worked out at 45 % UTC.
With “1076227 (kA*k[5mC]*kT*dT*dA*dT*dA*dA*dG*dG*d[5mC]*d[5mC]*dA*kG*k[5mC]*kA; antisense) [Compound 1076227]”, the “YAP1 (% UTC)” value under setting [5] stood at 16 % UTC.
“1075479 (kG*kA*k[5mC]*dA*dA*dT*dA*dA*dA*dT*d[5mC]*dT*dG*k[5mC]*k[5mC]*kT; antisense) [compound 1075479]”: the “YAP1 (% UTC)” value under setting [3] is 77 % UTC.
Regarding “1075587 (k[5mC]*kT*kT*dA*dT*dT*dA*dG*d[5mC]*dA*d[5mC]*d[5mC]*dT*kG*kG*kG; antisense) [Compound 1075587]”, under setting [5], the “YAP1 (% UTC)” value came to 50 % UTC.
For the substance “1075298 (kA*kT*k[5mC]*dT*d[5mC]*dG*dG*dA*dA*dA*dT*dT*dT*kA*kA*kA; antisense) [Compound 1075298]”, under setting [1], the “YAP1 (% UTC)” value was 128 % UTC.
For the substance “1075746 (kG*kA*kT*dT*dA*dA*d[5mC]*d[5mC]*d[5mC]*dA*dG*dT*dA*kG*kA*kG; antisense) [Compound 1075746]”, the “YAP1 (% UTC)” value under setting [1] was 28 % UTC.
For “1075414 (antisense k[5mC]*kA*kT*dA*d[5mC]*dT*dA*dA*dT*d[5mC]*d[5mC]*d[5mC]*dT*k[5mC]*kT*kT) [compound 1075414]”, the “YAP1 (% UTC)” value under setting [2] is listed as 41 % UTC.
In the case of “1075863 (antisense k[5mC]*k[5mC]*kT*dA*dA*dT*dA*dA*d[5mC]*dT*dT*dG*dT*k[5mC]*kT*kA) [compound 1075863]”, the “YAP1 (% UTC)” value under setting [3] stood at 71 % UTC.
Still for that read-out and setting: the figure for “1076279 (k[5mC]*kA*kA*dT*dA*dA*dG*dG*dA*d[5mC]*dA*dG*dG*kA*k[5mC]*k[5mC]; antisense) [compound 1076279]” is 71 % UTC.
For the substance “1076483 (antisense kA*k[5mC]*kG*dG*dG*dA*dA*dA*dT*d[5mC]*dA*dT*dA*kT*kA*kG) [Compound 1076483]”, under setting [5], the “YAP1 (% UTC)” value worked out at 5 % UTC.
Consider “1075958 (k[5mC]*kA*kT*dT*dA*dT*dG*dA*d[5mC]*dA*dT*dT*d[5mC]*k[5mC]*k[5mC]*k[5mC]; antisense) [compound 1075958]”, for which the “YAP1 (% UTC)” value under setting [2] was 12 % UTC.
Consider “1075810 (kG*kT*kA*dG*d[5mC]*dA*dA*dT*dA*dG*dA*dG*dT*kA*kA*k[5mC]; antisense) [Compound 1075810]”, for which, under setting [1], the “YAP1 (% UTC)” value amounted to 7 % UTC.
Take “1076035 (kG*kT*kA*dA*dT*dT*dA*dG*dA*dA*dA*d[5mC]*dT*kT*kG*kG; antisense) [Compound 1076035]”: the “YAP1 (% UTC)” value under setting [5] is 9 % UTC.
In the case of “1075584 (kA*kA*kT*dA*dA*dT*dT*dG*dA*d[5mC]*d[5mC]*dT*dA*kG*k[5mC]*kA; antisense) [Compound 1075584]”, the “YAP1 (% UTC)” value under setting [4] amounted to 57 % UTC.
On to “1074562 (antisense kG*kA*kA*dT*dT*d[5mC]*d[5mC]*dA*dA*dT*d[5mC]*dG*dA*kG*kA*k[5mC]) [Compound 1074562]”, for which, under setting [1], the “YAP1 (% UTC)” value came to 30 % UTC.
With “1075393 (k[5mC]*kT*kT*dA*dA*d[5mC]*d[5mC]*dT*dA*dT*dG*d[5mC]*d[5mC]*kA*kA*kA; antisense) [Compound 1075393]”, the “YAP1 (% UTC)” value under setting [6] was determined as 37 % UTC.
As for “1074583 (DNA kG*kT*kA*dA*dA*d[5mC]*d[5mC]*dA*d[5mC]*dT*dA*dT*dA*kA*kA*kG; antisense) [compound 1074583]”, the “YAP1 (% UTC)” value under setting [3] is 30 % UTC.
For the substance “1076086 (kA*kA*k[5mC]*dT*dA*dA*dT*dA*dG*dG*d[5mC]*d[5mC]*dA*kT*k[5mC]*kT; antisense) [compound 1076086]”, the “YAP1 (% UTC)” value under setting [2] amounted to 31 % UTC.
As to “1076195 (kA*kA*kT*dA*dA*d[5mC]*dA*dT*dG*dG*dT*dT*d[5mC]*kT*kG*kT; antisense) [Compound 1076195]”, the “YAP1 (% UTC)” value under setting [5] stood at 20 % UTC.
As to “1075330 (kG*kA*kG*dG*dG*dA*dA*dA*dA*d[5mC]*dT*dT*dT*kG*k[5mC]*kA; antisense) [Compound 1075330]”, under setting [1], the “YAP1 (% UTC)” value stood at 63 % UTC.
For “1075542 (kT*kG*kA*dG*dA*dA*dA*dG*dG*dT*dT*d[5mC]*d[5mC]*kT*kG*kA; antisense) [compound 1075542]”, the “YAP1 (% UTC)” value under setting [2] came out at 66 % UTC.
Take “1075681 (kT*kA*kA*dT*dT*dA*dT*dT*dA*d[5mC]*d[5mC]*d[5mC]*d[5mC]*kT*kT*k[5mC]; antisense) [Compound 1075681]”: the “YAP1 (% UTC)” value under setting [6] was 37 % UTC.
For “1075041 (antisense kG*kA*kT*dT*dA*dT*dA*dA*dA*dG*dA*dG*dG*k[5mC]*kT*k[5mC]) [Compound 1075041]”, the “YAP1 (% UTC)” value under setting [6] was 5 % UTC.
Still for that read-out and setting: for “1075617 (kT*kA*kA*dG*dA*dA*d[5mC]*dG*dA*d[5mC]*dA*dT*dA*kT*kG*k[5mC]; antisense) [Compound 1075617]” the value was 27 % UTC.
Turning to “1074498 (kA*k[5mC]*kA*dA*dT*dA*dA*d[5mC]*d[5mC]*dA*dT*d[5mC]*d[5mC]*k[5mC]*kA*kA; antisense) [Compound 1074498]”, the “YAP1 (% UTC)” value under setting [1] amounted to 17 % UTC.
As to “1075521 (kA*kA*kA*dT*d[5mC]*dG*dA*dG*dG*d[5mC]*dG*dA*dA*kT*k[5mC]*kT; antisense) [Compound 1075521]”, the “YAP1 (% UTC)” value under setting [6] was determined as 65 % UTC.
In the case of “1075415 (antisense k[5mC]*kA*kT*dT*dA*dA*dA*dT*dG*dA*d[5mC]*dA*dG*k[5mC]*k[5mC]*kT) [compound 1075415]”, the “YAP1 (% UTC)” value under setting [3] is 52 % UTC.
Regarding “1076215 (kT*kT*kA*dT*dA*dA*d[5mC]*dA*dG*dA*d[5mC]*dT*dG*kG*k[5mC]*kT; antisense) [compound 1076215]”, under setting [3], the “YAP1 (% UTC)” value was 47 % UTC.
“1074240 (antisense k[5mC]*kT*kG*dG*d[5mC]*dA*dG*dA*dG*dG*dT*dA*d[5mC]*kA*kT*k[5mC]) [Compound 1074240]”: the “YAP1 (% UTC)” value under setting [4] came to 29 % UTC.
With “1076321 (k[5mC]*kA*kA*dT*dA*dT*d[5mC]*dA*d[5mC]*dT*dT*dG*dG*kG*k[5mC]*k[5mC]; antisense) [Compound 1076321]”, under setting [6], the “YAP1 (% UTC)” value is listed as 63 % UTC.
